Laboratory results from US20250154141A1 (University of Florida Research Foundation, Incorporated, priority 2021, published 2025).
Like-named read-outs stand apart in the source and are kept apart here.

Experiments:
[1] = test system: MOLT-4; experiment: Cell viability assay (MTS) in MOLT-4 cells; format: cell-based; conditions: Homo sapiens, MOLT-4
Protocol: (§1) Acute lymphoblastic leukemia cells (MOLT-4 and RS4; 11) were incubated with increasing concentrations of Bcl-xL degraders for 48 h. Cell viability was measured by tetrazolium-based MTS assay.

[2] = test system: RS4; 11; experiment: Cell viability assay (MTS) in RS4; 11 cells; format: cell-based; parameters: Anti-Cancer Activity IC50 (48 hr) RS4; 11: scale not given here; conditions: for IC50: Homo sapiens, RS4-11
Protocol: as §1

[3] = Table 2, 48 hr, MTS, read-out: Anti-Cancer Activity IC50 (48 hr) MOLT-4
[4] = Table 2, 48 hr, MTS, read-out: Anti-Cancer Activity IC50 (48 hr) RS4, 11

Structure (SMILES)	IC50 [1, 3]	IC50 [2, 4]	further results
Cc1ncsc1-c1ccc([C@H](C)NC(=O)[C@@H]2C[C@@H](O)CN2C(=O)[C@@H](NC(=O)CCCCCCC(=O)N2CCN(C[C@]3(C)CCC(c4ccc(Cl)cc4)=C(CN4CCN(c5ccc(C(=O)NS(=O)(=O)c6ccc(N[C@H](CCN7CCCOCC7)CSc7ccccc7)c(S(=O)(=O)C(F)(F)F)c6)cc5)CC4)C3)CC2)C(C)(C)C)cc1 [Compound 59, (2S,4R)-1-((S)-2-(8-(4-(((R)-6-((4-(4-(((4-(((R)-4-(1,4-oxazepan-4-yl)-1-(phenylthio)butan-2-yl)amino)-3-((trifluoromethyl)sulfonyl)phenyl)sulfonyl)carbamoyl)phenyl)piperazin-1-yl)methyl)-4′-chloro-4-methyl-2,3,4,5-tetrahydro-[1,1′-biphenyl]-4-yl)methyl)piperazin-1-yl)-8-oxooctanamido)-3,3-dimethylbutanoyl)-4-hydroxy-N—((S)-1-(4-(4-methylthiazol-5-yl)phenyl)ethyl)pyrrolidine-2-carboxamide]	< 20 nM	< 20 nM	IC50 ([1]; Table 4, 48 h, read-out: MOLT-4 48 h IC50): 0.7 nM; IC50 ([2]; Table 4, 48 h, read-out: RS4 48 h IC50): 1.6 nM
Cc1ncsc1-c1ccc([C@H](C)NC(=O)[C@@H]2C[C@@H](O)CN2C(=O)[C@@H](NC(=O)CC(=O)N2CCC(S(=O)(=O)N3CCN(C[C@]4(C)CCC(c5ccc(Cl)cc5)=C(CN5CCN(c6ccc(C(=O)NS(=O)(=O)c7ccc(N[C@H](CCN8CCCOCC8)CSc8ccccc8)c(S(=O)(=O)C(F)(F)F)c7)cc6)CC5)C4)CC3)CC2)C(C)(C)C)cc1 [Compound 100]	100 to 500 nM	20 to 100 nM	–
CCN(CCO)CC[C@H](CSc1ccccc1)Nc1ccc(S(=O)(=O)NC(=O)c2ccc(N3CCN(CC4=C(c5ccc(Cl)cc5)CCC(C)(CN5CCN(C(=O)CCCCCCC(=O)N[C@H](C(=O)N6C[C@H](O)C[C@H]6C(=O)N[C@@H](C)c6ccc(-c7scnc7C)cc6)C(C)(C)C)CC5)C4)CC3)cc2)cc1S(=O)(=O)C(F)(F)F (stereo partly drawn) [Compound 63, (2S,4R)-1-((2S)-2-(8-(4-((4′-chloro-6-((4-(4-(((4-(((R)-4-(ethyl(2-hydroxyethyl)amino)-1-(phenylthio)butan-2-yl)amino)-3-((trifluoromethyl)sulfonyl)phenyl)sulfonyl)carbamoyl)phenyl)piperazin-1-yl)methyl)-4-methyl-2,3,4,5-tetrahydro-[1,1′-biphenyl]-4-yl)methyl)piperazin-1-yl)-8-oxooctanamido)-3,3-dimethylbutanoyl)-4-hydroxy-N—((S)-1-(4-(4-methylthiazol-5-yl)phenyl)ethyl)pyrrolidine-2-carboxamide]	20 to 100 nM	< 20 nM	–
Cc1ncsc1-c1ccc([C@H](C)NC(=O)[C@@H]2C[C@@H](O)CN2C(=O)[C@@H](NC(=O)CCCCCCC(=O)N2CCN(C[C@]3(C)CCC(c4ccc(Cl)cc4)=C(CN4CCN(c5ccc(C(=O)NS(=O)(=O)c6ccc(N[C@H](CCN7CCCCCC7)CSc7ccccc7)c(S(=O)(=O)C(F)(F)F)c6)cc5)CC4)C3)CC2)C(C)(C)C)cc1 [Compound 60, (2S,4R)-1-((S)-2-(8-(4-(((R)-6-((4-(4-(((4-(((R)-4-(azepan-1-yl)-1-(phenylthio)butan-2-yl)amino)-3-((trifluoromethyl)sulfonyl)phenyl)sulfonyl)carbamoyl)phenyl)piperazin-1-yl)methyl)-4′-chloro-4-methyl-2,3,4,5-tetrahydro-[1,1′-biphenyl]-4-yl)methyl)piperazin-1-yl)-8-oxooctanamido)-3,3-dimethylbutanoyl)-4-hydroxy-N—((S)-1-(4-(4-methylthiazol-5-yl)phenyl)ethyl)pyrrolidine-2-carboxamide]	< 20 nM	< 20 nM	–
Cc1ncsc1-c1ccc([C@H](C)NC(=O)[C@@H]2C[C@@H](O)CN2C(=O)[C@@H](NC(=O)CCCCCNC(=O)c2ccc(N3CCN(CCN(C)CC4(C)CCC(c5ccc(Cl)cc5)=C(CN5CCN(c6ccc(C(=O)NS(=O)(=O)c7ccc(N[C@H](CCN8CCOCC8)CSc8ccccc8)c(S(=O)(=O)C(F)(F)F)c7)cc6)CC5)C4)CC3)cc2)C(C)(C)C)cc1 (stereo partly shown) [Compound 15]	20 to 100 nM	20 to 100 nM	–
Cc1ncsc1-c1ccc([C@H](C)NC(=O)[C@@H]2C[C@@H](O)CN2C(=O)[C@@H](NC(=O)CCCCCCC(=O)N2CCN(CCC3(C)CCC(c4ccc(Cl)cc4)=C(CN4CCN(c5ccc(C(=O)NS(=O)(=O)c6ccc(N[C@H](CCN7CCOCC7)CSc7ccccc7)c(S(=O)(=O)C(F)(F)F)c6)cc5)CC4)C3)CC2)C(C)(C)C)cc1 (stereo partly drawn) [Compound 28, (2S,4R)-1-((2S)-2-(8-(4-(2-(4′-chloro-4-methyl-6-((4-(4-(((4-(((R)-4-morpholino-1-(phenylthio)butan-2-yl)amino)-3-((trifluoromethyl)sulfonyl)phenyl)sulfonyl)carbamoyl)phenyl)piperazin-1-yl)methyl)-2,3,4,5-tetrahydro-[1,1′-biphenyl]-4-yl)ethyl)piperazin-1-yl)-8-oxooctanamido)-3,3-dimethylbutanoyl)-4-hydroxy-N—((S)-1-(4-(4-methylthiazol-5-yl)phenyl)ethyl)pyrrolidine-2-carboxamide]	100 to 500 nM	20 to 100 nM	–
Cc1ncsc1-c1ccc([C@H](C)NC(=O)[C@@H]2C[C@@H](O)CN2C(=O)[C@@H](NC(=O)CCCCCCC(=O)N2CCN(C[C@]3(C)CCC(c4ccc(Cl)cc4)=C(CN4CCN(c5ccc(C(=O)NS(=O)(=O)c6ccc(N[C@H](CCN7CCCOCC7)CSc7ccccc7)c(S(=O)(=O)C(F)(F)F)c6)cc5)CC4)C3)C[C@H]2C)C(C)(C)C)cc1 [Compound 81]	< 20 nM	< 20 nM	–
Cc1ncsc1-c1ccc([C@H](C)NC(=O)[C@@H]2C[C@@H](O)CN2C(=O)[C@@H](NC(=O)CCCCCCCNC(=O)c2ccc(N3CCN(CC4(C)CCC(c5ccc(Cl)cc5)=C(CN5CCN(c6ccc(C(=O)NS(=O)(=O)c7ccc(N[C@H](CCN8CCOCC8)CSc8ccccc8)c(S(=O)(=O)C(F)(F)F)c7)cc6)CC5)C4)CC3)cn2)C(C)(C)C)cc1 (stereo partly shown) [Compound 6]	500 to 10000 nM	100 to 500 nM	–
Cc1ncsc1-c1ccc([C@H](C)NC(=O)[C@@H]2C[C@@H](O)CN2C(=O)[C@@H](NC(=O)CN2CCN(CCNC(=O)c3ccc(CN4CCN(C[C@]5(C)CCC(c6ccc(Cl)cc6)=C(CN6CCN(c7ccc(C(=O)NS(=O)(=O)c8ccc(N[C@H](CCN9CCCOCC9)CSc9ccccc9)c(S(=O)(=O)C(F)(F)F)c8)cc7)CC6)C5)CC4)nc3)CC2)C(C)(C)C)cc1 [Compound 114]	–	–	IC50 ([1]; Table 2A, 48 hr, MTS, read-out: Anti-Cancer Activity IC50 (48 hr) MOLT-4): < 20 nM; IC50 ([2]; Table 2A, 48 hr, MTS, read-out: Anti-Cancer Activity IC50 (48 hr) RS4, 11): < 20 nM
Cc1ncsc1-c1ccc([C@H](C)NC(=O)[C@@H]2C[C@@H](O)CN2C(=O)[C@@H](NC(=O)CCCNC(=O)c2ccc(N3CCN(CC4(C)CCC(c5ccc(Cl)cc5)=C(CN5CCN(c6ccc(C(=O)NS(=O)(=O)c7ccc(N[C@H](CCN8CCOCC8)CSc8ccccc8)c(S(=O)(=O)C(F)(F)F)c7)cc6)CC5)C4)CC3)nc2)C(C)(C)C)cc1 (stereo partly shown) [Compound 2]	20 to 100 nM	20 to 100 nM	–
Cc1ncsc1-c1ccc([C@H](C)NC(=O)[C@@H]2C[C@@H](O)CN2C(=O)[C@@H](NC(=O)CCCCCCC(=O)N2CCN(CC3(C)CCC(c4ccc(Cl)cc4)=C(CN4CCN(c5ccc(C(=O)NS(=O)(=O)c6ccc(N[C@H](CCN(C)C7CCC7)CSc7ccccc7)c([N+](=O)[O-])c6)cc5)CC4)C3)CC2)C(C)(C)C)cc1 (stereo partly drawn) [Compound 36, (2S,4R)-1-((2S)-2-(8-(4-((4′-chloro-6-((4-(4-(((4-(((R)-4-(cyclobutyl(methyl)amino)-1-(phenylthio)butan-2-yl)amino)-3-nitrophenyl)sulfonyl)carbamoyl)phenyl)piperazin-1-yl)methyl)-4-methyl-2,3,4,5-tetrahydro-[1,1′-biphenyl]-4-yl)methyl)piperazin-1-yl)-8-oxooctanamido)-3,3-dimethylbutanoyl)-4-hydroxy-N—((S)-1-(4-(4-methylthiazol-5-yl)phenyl)ethyl)pyrrolidine-2-carboxamide]	20 to 100 nM	–	Anti-Cancer Activity IC50 (48 hr) RS4; 11 ([2]; Table 2, 48 hr, MTS): ++ ++
Cc1ncsc1-c1ccc([C@H](C)NC(=O)[C@@H]2C[C@@H](O)CN2C(=O)[C@@H](NC(=O)CCCCCCC(=O)N2CCN(CC3(C)CCC(c4ccc(Cl)cc4)=C(CN4CCN(c5ccc(C(=O)NS(=O)(=O)c6ccc(N[C@H](CCN(C)C)CSc7ccccc7)c([N+](=O)[O-])c6)cc5)CC4)C3)CC2)C(C)(C)C)cc1 (stereo partly drawn) [Compound 34, (2S,4R)-1-((2S)-2-(8-(4-((4′-chloro-6-((4-(4-(((4-(((R)-4-(dimethylamino)-1-(phenylthio)butan-2-yl)amino)-3-nitrophenyl)sulfonyl)carbamoyl)phenyl)piperazin-1-yl)methyl)-4-methyl-2,3,4,5-tetrahydro-[1,1′-biphenyl]-4-yl)methyl)piperazin-1-yl)-8-oxooctanamido)-3,3-dimethylbutanoyl)-4-hydroxy-N—((S)-1-(4-(4-methylthiazol-5-yl)phenyl)ethyl)pyrrolidine-2-carboxamide]	< 20 nM	< 20 nM	–
Cc1ncsc1-c1ccc([C@H](C)NC(=O)[C@@H]2C[C@@H](O)CN2C(=O)[C@@H](NC(=O)CCCCCCC(=O)N2CCN(C[C@]3(C)CCC(c4ccc(Cl)cc4)=C(CN4CCN(c5ccc(C(=O)NS(=O)(=O)c6ccc(N[C@H](CCN7CC8CCC7C8)CSc7ccccc7)c([N+](=O)[O-])c6)cc5)CC4)C3)CC2)C(C)(C)C)cc1 (stereo partly drawn) [Compound 53, (2S,4R)-1-((2S)-2-(8-(4-(((4R)-6-((4-(4-(((4-(((2R)-4-(2-azabicyclo[2.2.1]heptan-2-yl)-1-(phenylthio)butan-2-yl)amino)-3-nitrophenyl)sulfonyl)carbamoyl)phenyl)piperazin-1-yl)methyl)-4′-chloro-4-methyl-2,3,4,5-tetrahydro-[1,1′-biphenyl]-4-yl)methyl)piperazin-1-yl)-8-oxooctanamido)-3,3-dimethylbutanoyl)-4-hydroxy-N—((S)-1-(4-(4-methylthiazol-5-yl)phenyl)ethyl)pyrrolidine-2-carboxamide]	20 to 100 nM	< 20 nM	–
